The results in this text go back to patent publication US20100168175A1, “ATPENINS” (priority 2008, published 2010).

For one series, the system named is Sphaerotheca fuliginea. Briefly: Sphaerotheca test (cucumber)/protective. It is filed as in vivo. The settings on record: Podosphaera fuliginea, 168 h, read-out: Efficacy in %.
For a further series, the system named is Alternaria solani. Briefly: Alternaria test (tomato)/protective. The settings on record: young tomato plants, protective spray, application rate 500 (in ppm g/ha [sic]), evaluation 7 days after inoculation; 0% = control, 100% = no infection. It counts as in vivo.
Another series concerns Phytophthora infestans. The series is described as follows: whole plant or invertebrate. It is filed as in vivo. The settings on record: in Solanum lycopersicum, 168 h, read-out: Efficacy in %.
A short description of series [1]: log P by HPLC on a reversed-phase column (C18), EEC Directive 79/831 Annex V.A8. It counts as physicochemical. The settings on record: reversed-phase HPLC column (Kromasil 100 C18), H3PO4. The method, then:
The stated log P values were determined in accordance with EEC Directive 79/831 Annex V.A8 by HPLC (High Performance Liquid Chromatography) on a reversed-phase column (C18).
HP1100 LC System (UV/DAD); Kromasil 100 C18, 3.5 μm, 75×2.0 mm; mobile phase A: acetonitrile (0.1% formic acid); mobile phase B: water (0.09% formic acid); linear gradient from 10% acetonitrile to 95% acetonitrile over 8.5 min, then 95% acetonitrile for a further 3.5 min; oven temperature 43° C.; flow rate: 0.5 ml/min
HP1100 LC System (UV/DAD); Kromasil 100 C18, 3.5 μm, 70×3.1 mm; mobile phase A: acetonitrile (0.1% phosphoric acid); mobile phase B: water (0.1% phosphoric acid); linear gradient from 10% acetonitrile to 95% acetonitrile over 8.5 min, then 95% acetonitrile for a further 3 min; oven temperature 43° C.; flow rate: 1 ml/min

Setting [2] is: young cucumber plants, protective spray, application rate 100 g/ha, evaluation 7 days after inoculation, 0% = control, 100% = no infection.

Where two headings read alike, the source gives them in different places.

In the case of `C/C=C/CC(C)C(=O)c1c(O)c(OC)c(OC)[nH]c1=O` (stereo not drawn) [Compound I-1, 4-Hydroxy-5,6-dimethoxy-3-[(4E)-2-methylhex-4-enoyl]pyridin-2(1H)-one], the pest or weed control at 100 g/ha in the series on Sphaerotheca fuliginea was determined as 77%. In addition, in the series on Alternaria solani, the Efficacy in % is 0%. In addition, in the series on Phytophthora infestans, the pest or weed control at 500 ppm turned out to be 0%.

As to `COc1ccc(Cn2c(OC)c(OC)c(O)c(C(=O)CCCCc3ccccc3)c2=O)cc1` [Compound I-28], in the series with Phytophthora infestans, the pest or weed control at 500 ppm worked out at 50%.

Take `CCC(=O)c1c(O)c(OC)c(OC)n(Cc2ccc(OC)cc2)c1=O` [Compound I-48, 4-Hydroxy-5,6-dimethoxy-1-(4-methoxybenzyl)-3-propanoylpyridin-2(1H)-one]: in the series on Alternaria solani, the Efficacy in % is recorded as 57%. In addition, the pest or weed control at 500 ppm in the series with Phytophthora infestans came out at 63%.

Regarding `COc1ccc(Cn2c(OC)c(OC)c(O)c(C(=O)c3ccc(C)cc3)c2=O)cc1` [Compound I-49], the pest or weed control at 500 ppm with Phytophthora infestans was 50%.

For the molecule `COc1[nH]c(=O)c(C(=O)c2ccc(C)cc2)c(O)c1OC` [Compound I-55], the pest or weed control at 500 ppm with Phytophthora infestans worked out at 56%.

For the molecule `COc1ccc(Cn2c(OC)c(OC)c(O)c(C(C)=O)c2=O)c(OC)c1` [Compound I-66], the Efficacy in % in the series on Alternaria solani is on record as 94%.

On to `COc1ccc(Cn2c(O)c(OC)c(O)c(C(=O)C3CCCC3)c2=O)c(OC)c1` [Compound I-69], for which the pest or weed control at 500 ppm in the series with Phytophthora infestans worked out at 50%.

Turning to `COc1[nH]c(=O)c(C(=O)CCc2ccccc2C)c(O)c1OC` [Compound I-72], the Efficacy in % with Alternaria solani is 50%.

`CCC(CC)CC(C)C(=O)c1c(O)c(OC)c(OC)[nH]c1=O` (stereo not drawn) [Compound I-74]: the pest or weed control at 100 g/ha in the series on Sphaerotheca fuliginea was 100%.

In the case of `COc1ccc(Cn2c(OC)c(OC)c(O)c(C(=O)Nc3ccc(-c4ccccc4)cc3)c2=O)cc1` [Compound I-75], the Efficacy in % with Alternaria solani is 70%.

Usually chromatographic logP stands for lipophilicity estimated from chromatographic retention. A low value points to lower lipophilicity. In the case of `COc1ccc(Cn2c(OC)c(OC)c(O)c(C(=O)CCc3ccc(Oc4ccc(Cl)cc4)cc3)c2=O)cc1` [Compound I-89], the pest or weed control at 500 ppm with Phytophthora infestans was determined as 50%. Besides, in series [1], the chromatographic logP worked out at 5.75.

In the case of `COc1ccc(Cn2c(O)c(OC)c(O)c(C(=O)C3CCC(C)CC3)c2=O)cc1` (stereo not drawn) [Compound I-101], the pest or weed control at 500 ppm with Phytophthora infestans was found to be 78%.

`COc1ccc(Cn2c(OC)c(OC)c(O)c(C(=O)Cc3ccc(Br)cc3)c2=O)cc1` [Compound I-107]: the pest or weed control at 500 ppm with Phytophthora infestans was found to be 78%.

As to `COc1c(O)c(C(=O)C(C)C)c(=O)n(Cc2ccccc2)c1OC` [Compound I-108], the Efficacy in % with Alternaria solani is 67%.

For `COc1ccc(Cn2c(OC)c(OC)c(O)c(C(=O)C3CC=CCC3)c2=O)c(OC)c1` (stereo not drawn) [Compound I-110], in the series on Phytophthora infestans, the pest or weed control at 500 ppm is 78%.

As to `COc1ccc(Cn2c(O)c(OC)c(O)c(C(=O)C3CCCCCC3)c2=O)cc1` [Compound I-111], the pest or weed control at 500 ppm in the series on Phytophthora infestans was 89%.

Molecule `COc1[nH]c(=O)c(C(=O)C2CCC(C)CC2)c(O)c1OC` (stereo not drawn) [Compound I-121] registered an Efficacy in % with Alternaria solani of 56%.

For `COc1[nH]c(=O)c(C(=O)c2ccc(Cl)cc2)c(O)c1OC` [Compound I-122], the pest or weed control at 500 ppm in the series on Phytophthora infestans came to 56%.

For `CCCC(C)C(=O)c1c(O)c(OC)c(OC)[nH]c1=O` (stereo not drawn) [Compound I-129], the pest or weed control at 100 g/ha with Sphaerotheca fuliginea stood at 98%. Besides, the pest or weed control at 500 ppm in the series with Phytophthora infestans came out at 56%.

On to `COc1[nH]c(=O)c(C(=O)C2CC2)c(O)c1OC` [Compound I-130], for which the pest or weed control at 500 ppm in the series on Phytophthora infestans was found to be 56%.

With `COc1[nH]c(=O)c(C(=O)C(C)CC(C)C)c(O)c1OC` (stereo not drawn) [Compound I-138, 3-(2,4-Dimethylpentanoyl)-4-hydroxy-5,6-dimethoxypyridin-2(1H)-one], the pest or weed control at 100 g/ha in the series with Sphaerotheca fuliginea (setting [2]) was 96%.

Consider `CCCC(C)c1ccccc1NC(=O)c1c(O)c(OC)c(OC)[nH]c1=O` (stereo not drawn) [Compound I-139], for which the pest or weed control at 500 ppm in the series on Phytophthora infestans was determined as 60%.

Regarding `COc1[nH]c(=O)c(C(=O)C(C)Cc2ccc(C(F)(F)F)cc2)c(O)c1OC` (stereo not drawn) [Compound I-141], the Efficacy in % with Alternaria solani was determined as 80%. Besides, the pest or weed control at 500 ppm in the series with Phytophthora infestans turned out to be 70%.

In turn, `COc1[nH]c(=O)c(C(=O)C(C)C2CCCCC2)c(O)c1OC` (stereo not drawn) [Compound I-149] displayed an Efficacy in % in the series on Alternaria solani of 80%.

As to `COc1[nH]c(=O)c(C(=O)C(C)CCC(C)C)c(O)c1OC` (stereo not drawn) [Compound I-153], in the series with Alternaria solani, the Efficacy in % came out at 90%.

In turn, `COc1ccc(Cn2c(OC)c(OC)c(O)c(C(=O)C(C)C/C=C\COCc3ccccc3)c2=O)cc1` (stereo not drawn) [Compound I-157] had an Efficacy in % in the series on Alternaria solani of 50%.

In the series with Alternaria solani, `COc1[nH]c(=O)c(C(=O)C(C)CCCc2ccccc2)c(O)c1OC` (stereo not drawn) [Compound I-158] registered an Efficacy in % of 50%. Further, the pest or weed control at 500 ppm with Phytophthora infestans stood at 60%.

`COc1[nH]c(=O)c(C(=O)C(C)CC(C)Cc2ccccc2)c(O)c1OC` (stereo not drawn) [Compound I-160] came in with an Efficacy in % in the series with Alternaria solani of 70%.

Molecule `COc1[nH]c(=O)c(C(=O)C(C)CC2CCC(C(C)C)CC2)c(O)c1OC` (stereo not drawn) [Compound I-164] returned an Efficacy in % with Alternaria solani of 90%. The same molecule showed a chromatographic logP in series [1] of 5.41.

Consider `COc1ccc(Cn2c(OC)c(OC)c(O)c(C(=O)C(C)Cc3c(Cl)cccc3Cl)c2=O)cc1` (stereo not drawn) [Compound I-172, 3-[3-(2,6-Dichlorophenyl)-2-methylpropanoyl]-4-hydroxy-5,6-dimethoxy-1-(4-methoxybenzyl)pyridin-2(1H)-one], for which the pest or weed control at 500 ppm in the series with Phytophthora infestans is 71%.

In the case of `CCCCCC(C)C(=O)c1c(O)c(OC)c(O)n(Cc2ccc(OC)cc2)c1=O` (stereo not drawn) [Compound I-178, 4,6-Dihydroxy-5-methoxy-1-(4-methoxybenzyl)-3-(2-methylheptanoyl)pyridin-2(1H)-one], in the series with Phytophthora infestans, the pest or weed control at 500 ppm stood at 60%.

For the molecule `COc1ccc(Cn2c(O)c(OC)c(O)c(C(=O)C(C)CC(F)(F)F)c2=O)cc1` (stereo not drawn) [Compound I-180], in the series on Phytophthora infestans, the pest or weed control at 500 ppm was 50%.

In the series on Alternaria solani, `CCCC1CCC(C(=O)c2c(O)c(OC)c(OC)n(Cc3ccc(OC)cc3)c2=O)CC1` (stereo not drawn) [Compound I-184] yielded an Efficacy in % of 56%.

Regarding `COc1[nH]c(=O)c(C(=O)C(C)CC(F)(F)F)c(O)c1OC` (stereo not drawn) [Compound I-197], the pest or weed control at 100 g/ha in the series on Sphaerotheca fuliginea (setting [2]) came out at 100%.

As for `COc1[nH]c(=O)c(C(=O)C(C)c2ccc(Cl)cc2)c(O)c1OC` (stereo not drawn) [Compound I-204], the pest or weed control at 100 g/ha in the series on Sphaerotheca fuliginea (setting [2]) was 85%.

`CCCCCCC(CCCC)C(=O)c1c(O)c(OC)c(OC)[nH]c1=O` (stereo not drawn) [Compound I-212] gave an Efficacy in % in the series on Alternaria solani of 71%.

Consider `CCC(C)CC(C)C(=O)c1c(O)c(OC)c(OC)[nH]c1=O` (stereo not drawn) [Compound I-219], for which, in the series on Alternaria solani, the Efficacy in % came out at 50%.

For the molecule `COc1[nH]c(=O)c(C(=O)c2ccc3ccccc3c2)c(O)c1OC` [Compound I-221], in the series with Alternaria solani, the Efficacy in % stood at 93%. In addition, the pest or weed control at 500 ppm in the series on Phytophthora infestans was 80%.

`COc1[nH]c(=O)c(C(=O)C(C)CCC(C)(C)C)c(O)c1OC` (stereo not drawn) [Compound I-228]: the Efficacy in % in the series with Alternaria solani came out at 80%.

With `CCCCC(C)C(=O)c1c(O)c(OC)c(OC)[nH]c1=O` (stereo not drawn) [Compound I-230], the pest or weed control at 100 g/ha in the series on Sphaerotheca fuliginea amounted to 98%. Besides, the Efficacy in % in the series on Alternaria solani was determined as 70%.

Take `COc1[nH]c(=O)c(C(=O)C(C)CCC2CCCC2)c(O)c1OC` (stereo not drawn) [Compound I-240]: in the series on Sphaerotheca fuliginea (setting [2]), the pest or weed control at 100 g/ha stood at 98%.
